Measurements published in patent US11046709B2, “Fused 1,4-diazepines as BET bromodomain inhibitors” (THE REGENTS OF THE UNIVERSITY OF MICHIGAN, priority 2017, dated 2021).

Legend:
[1] = Plasma exposure after oral gavage in mice, LC-MS/MS; format: in vivo; conditions: mouse, in vivo, po, 25 mg/kg
Experimental: For a number of representative compounds in Table 5, their plasma exposures with oral administration in mice via oral gavage were determined by LC-MS/MS, with the data shown in Table 9.

MOLM-13 = test: Cell growth inhibition, 4-day proliferation assay, MOLM-13; format: cell-based; conditions: Homo sapiens, MOLM-13, WST-8 assay, Table 7; read-out: Cell growth inhibition (IC50 (nM)) MOLM-13
MDA-MB-231 = test: Cell growth inhibition, 4-day proliferation assay, MDA-MB-231; format: cell-based; conditions: Homo sapiens, MDA-MB-231; WST-8 assay, Table 7; read-out: Cell growth inhibition (IC50 (nM)) MDA-MB-231
Summary of the method: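 WST-8 colorimetric read-out (absorbance 450 nm after 1-2 h) after 4-day compound exposure of 3,000-10,000 cells/well at 37 °C; IC50 from variable-slope sigmoid fit of DMSO-normalized signal.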

SMILES | concentration at 1 h [1] [ng/mL] | concentration at 3 h [1] [ng/mL] | concentration at 6 h [1] [ng/mL] | IC50 (MOLM-13) [nM] | IC50 (MDA-MB-231) [nM]
Cc1nnc(C[C@@H]2N=C(c3ccc(Cl)cc3)c3c(sc(C#CC4(C)COC4)c3C)-n3c(C)nnc32)o1 [Compound 149, (S)-2-((4-(4-chlorophenyl)-3,9-dimethyl-2-((3-methyloxetan-3-yl)ethynyl)-6H-thieno[3,2-f][1,2,4]triazolo[4,3-a][1,4]diazepin-6-yl)methyl)-5-methyl-1,3,4-oxadiazole] | 13000 | 12800 | 6640 | – | –
Cc1nnc(C[C@@H]2N=C(c3ccc(Cl)cc3)c3c(sc(C#CC4CCOCC4)c3C)-n3c(C)nnc32)s1 [Compound 151, (S)-4-(4-chlorophenyl)-3,9-dimethyl-6-((5-methyl-1,3,4-thiadiazol-2-yl)methyl)-2-((tetrahydro-2H-pyran-4-yl)ethynyl)-6H-thieno[3,2-f][1,2,4]triazolo[4,3-a][1,4]diazepine] | 451 | 299 | 115 | 81.6 | –
Cc1c(C#CC2CCOCC2)sc2c1C(c1ccc(Cl)cc1)=N[C@@H](CC(N)=O)c1nnc(C)n1-2 [Compound 152, (S)-2-(4-(4-chlorophenyl)-3,9-dimethyl-2-((tetrahydro-2H-pyran-4-yl)ethynyl)-6H-thieno[3,2-f][1,2,4]triazolo[4,3-a][1,4]diazepin-6-yl)acetamide] | 1120 | 472 | 231 | 30 | –
Cc1c(C#CC2CCOCC2)sc2c1C(c1ccc(Cl)cc1)=N[C@@H](CC(=O)N1CCOCC1)c1nnc(C)n1-2 [Compound 154, (S)-2-(4-(4-chlorophenyl)-3,9-dimethyl-2-((tetrahydro-2H-pyran-4-yl)ethynyl)-6H-thieno[3,2-f][1,2,4]triazolo[4,3-a][1,4]diazepin-6-yl)-1-morpholinoethan-1-one] | 1040 | 372 | 220 | 38.8 | –
Cc1c(C#CC2CCOCC2)sc2c1C(c1ccc(Cl)cc1)=N[C@@H](CC(=O)Nc1ccc(O)cc1)c1nnc(C)n1-2 [Compound 155, (S)-2-(4-(4-chlorophenyl)-3,9-dimethyl-2-((tetrahydro-2H-pyran-4-yl)ethynyl)-6H-thieno[3,2-f][1,2,4]triazolo[4,3-a][1,4]diazepin-6-yl)-N-(4-hydroxyphenyl)acetamide] | 832 | 127 | 42 | 69.3 | –
Cc1c(C#CC2CCOCC2)sc2c1C(c1ccc(Cl)cc1)=N[C@@H](CC(=O)N1CC(F)(F)C1)c1nnc(C)n1-2 [Compound 156, (S)-2-(4-(4-chlorophenyl)-3,9-dimethyl-2-((tetrahydro-2H-pyran-4-yl)ethynyl)-6H-thieno[3,2-f][1,2,4]triazolo[4,3-a][1,4]diazepin-6-yl)-1-(3,3-difluoroazetidin-1-yl)ethan-1-one] | 805 | 473 | 226 | 36.1 | –
Cc1c(C#Cc2cnn(C)c2)sc2c1C(c1ccc(Cl)cc1)=N[C@@H](CC(N)=O)c1nnc(C)n1-2 [Compound 166, (S)-2-(4-(4-chlorophenyl)-3,9-dimethyl-2-((1-methyl-1H-pyrazol-4-yl)ethynyl)-6H-thieno[3,2-f][1,2,4]triazolo[4,3-a][1,4]diazepin-6-yl)acetamide] | 55 | 30 | < 1 | 28.9 | 214 ± 42.2
CCNC(=O)C[C@@H]1N=C(c2ccc(Cl)cc2)c2c(sc(C#Cc3cnn(C)c3)c2C)-n2c(C)nnc21 [Compound 167, (S)-2-(4-(4-chlorophenyl)-3,9-dimethyl-2-((1-methyl-1H-pyrazol-4-yl)ethynyl)-6H-thieno[3,2-f][1,2,4]triazolo[4,3-a][1,4]diazepin-6-yl)-N-ethylacetamide] | 12 | < 1 | < 1 | 26.7 | 129 ± 40
